The values below come from US9840494B2, “Quinazoline derivative” (Tianjin Hemay Oncology Pharmaceutical Co., Ltd., priority 2013, dated 2017).

Structures are written as SMILES.

Data set [1] has as its system human pancreatic cancer cell line AsPC-1. As to the kind of experiment: In vitro inhibitory action on human tumor cells, AsPC-1 (MTT). The class given is cell-based. The settings on record: ASPC1, 72 h, MTT assay, usually 3 days. As to the method: (§1) Human epidermoid carcinoma cell line A431, human non-small cell lung cancer cell line HCC827, head and neck cancer cell lines Fadu and human pancreatic cancer cell line AsPC-1 were purchased from Cell Bank, Chinese Academy of Sciences.
(§2) 3.2 Cell culture method: cells were cultured in the complete medium at 37° C. under 5% CO2 and saturated humidity until logarithmic growth phase, i.e., adherent cells substantially approach complete confluence, and then collected for subsequent assay. For the adherent cells, they were firstly digested with trypsin/EDTA to detach.
(§3) 3.3 A certain number of cells were seeded into 96-well cell culture plates (hereinafter referred to as 96-well plates). […] Finally, total cellular protein in the wells was determined using SRB assay, or cell viability was determined with MTT assay.
(§4) 3.3.1 The cell seeding concentration was determined by cell growth curve assay which completely simulates compound inhibition assay process. […]
(§5) 3.4 Dilution and addition of compounds: the concentration of DMSO that can be tolerant by the cells was determined by DMSO tolerance assay, and thereby selecting the dilution and addition methods of compounds. The effects of different concentrations of DMSO on cell growth were determined by DMSO tolerance assay. […] Two methods are finally determined as follows. […]
Background: Formazan colour is commonly taken as a measure of viable cells.

The subject of data set [2] is human head and neck cancer cell lines Fadu. The data set can be described thus: In vitro inhibitory action on human tumor cells, Fadu (MTT). The settings on record: 72 h, MTT assay, usually 3 days. It is filed as cell-based. How it is done:
as §1, §2, §3, §4, §5

The nature of data set [3]: Bioavailability assay, Experiment III (free base). The settings on record: Wistar rats. The class given is in vivo. As to the method:
Experiment III. Bioavailability Assay for N-[4-(3-chloro-4-fluorophenylamino)-7-(2-methoxyethoxy)quinazolin-6-yl]-2-[1-(2-methoxyethyl)piperidin-4-ylidene]acetamide
8 Wistar rats (male, weighing 160-190 g) were purchased from Laboratory Animal Center, Chinese PLA Academy of Military Medical Sciences. License No.: SCXK (Army) 2012-0004; Certificate No.: 0037074.
1) the compound was precisely weighed in a 10 ml glass tube;
2) The volume of DMSO was 2% of the total volume and DMSO was pipetted. The tip of the pipette was slowly rotated with being pressed against the inner wall of the centrifuge tube, and DMSO was pipetted in several times to dissolve the compound adsorbed on the wall of the centrifuge tube. After all the compound was transferred to the bottom portion of the centrifuge tube, the compound was dissolved by vortex and then placed in a water bath at 80° C.;
3) polyoxylethylene 35-castor oil of which the volume was 6% of the total volume was added and vortex;
4) sodium chloride solution for injection (0.9%) of which the volume was 92% of the total volume was added and vortexed to give a clear solution which will be used within 60 min
8 rats were fasted and ad libitum accessed to water for 12 h before administration. They were randomly divided into two groups, i.e. four rats per group, and were administered with the drug according to the administration scheme. Blood (about 0.5 ml) was drawn from the orbital venous plexus before dosing and at 5 min, 0.5 h, 1 h, 2 h, 3 h, 4 h, 5 h, 6 h and 8 h after dosing, and put into a heparinized centrifuge tube and centrifuged at 8000 r/min for 10 min 100 μl of the plasma was recovered, and 200 μl of 0.2% acetic acid in methanol (containing an internal standard (irbesartan, 20 ng/ml)) was added thereto to precipitate protein, vortexed for 2 min and centrifuged at 13000 r/min for 10 min The supernatant was obtained, and 20 μl of the supernatant was injected for detection.
Chromatographic column: phenomenex Synergi Polar-RP (150×4.6 mm, 2.5 μm)
Flow rate: 1 ml/min; column temperature: 40° C.
Mobile phase: A phase: 5 mM aqueous solution of ammonium formate; B phase: methanol, and the gradient was as follows: […]
API3000 LC-MS/MS; ESI source; MRM positive ion scan mode; and the parameters were as follows:
The main pharmacokinetic parameters and oral bioavailability results were calculated by using DAS2.0 (statistical moment).
Method for the calculation of bioavailability: F=(AUCig×Div)/(AUCiv×Dig)×100%
wherein D is dose; AUC: the area under the plasma drug concentration-time curve; ig represents intragastric administration; and iv represents intravenous injection administration.

The mark [4] stands for this setting: 20 mg/kg intragastric gavage, preformulation.
Where [5] appears, read: 20 mg/kg tail intravenous injection, preformulation.
Setting [6] is: male, rat, plasma, po, 20 mg/kg intragastric gavage, preformulation.
Where [7] appears, read: male, rat, plasma, 20 mg/kg tail intravenous injection, preformulation.

Broadly, the IC50 is the concentration that gives 50% inhibition. The low end stands for inhibition by little substance, the high end for a need for much substance. Broadly, the bioavailability is dose-corrected exposure relative to a reference, in per cent. As a reminder, the AUC(0-inf) is the area under the concentration-time curve extrapolated to infinity. By AUC(0-t) is commonly meant the area under the concentration-time curve up to a stated or last time point. The Cmax is the maximum level reached in the sampled fluid or tissue. The term Tmax denotes the time from dosing to the highest level.

For the compound `COCCOc1cc2ncnc(Nc3ccc(F)c(Cl)c3)c2cc1NC(=O)C=C1CCN(CCOC)CC1.CS(=O)(=O)O` [Compound 3, N-[4-(3-chloro-4-fluorophenylamino)-7-(2-methoxyethoxy)quinazolin-6-yl]-2-[1-(2-methoxyethyl)piperidin-4-ylidene]acetamide dimethylsulfonate], the IC50 came to 4300 nM in data set [1] and 132 nM in data set [2].
Consider `COCCOc1cc2ncnc(Nc3ccc(F)c(Cl)c3)c2cc1NC(=O)C=C1CCN(CCOC)CC1` [Compound 1, N-[4-(3-chloro-4-fluorophenylamino)-7-(2-methoxyethoxy)quinazolin-6-yl]-2-[1-(2-methoxyethyl)piperidin-4-ylidene]acetamide], for which, in data set [3] (setting [4]), the CLz/F was found to be 103 mL/min/kg and the t½z turned out to be 4.59 h. In data set [3] (setting [5]), the CLz was found to be 24.7 mL/min/kg and the t½z is 4.39 h. The bioavailability in data set [3] (male, rat, plasma, oral, 20 mg/kg ig vs 20 mg/kg iv) worked out at 23.9%. In addition, in data set [3] (setting [6]), the AUC(0-inf) was 3320 ng·h/mL, the AUC(0-t) stood at 2190 ng·h/mL, the Cmax stood at 416 ng/mL and the Tmax stood at 2.5 h. Also, in data set [3] (male, rat, plasma, po, 20 mg/kg intragastric gavage, preformulation, read-out: Vz/F), the Vd/F was 39.2 L/kg. Besides, in data set [3] (setting [7]), the total exposure AUC(0-inf) is 13900 ng·h/mL, the AUC(0-t) is 11800 ng·h/mL, the Cmax worked out at 13200 ng/mL and the Tmax worked out at 0.083 h. Also, in data set [3] (male, rat, plasma, 20 mg/kg tail intravenous injection, preformulation, read-out: Vz), the Vd came out at 9.55 L/kg.
